From paper PMC10536304 (2023) come the findings set out here.

Assay [1] has as its system AU-RNA (poly A-poly U; rArU-RNA) (RNA, polymer) A/U. The experiment in a line: UV thermal melting, 260 nm. The conditions noted are these: Na+ (sodium cacodylate, I = 0.05 M); sodium cacodylate pH 7.0; r[compound]/[polynucleotide] = 0.1, polynucleotide 25 µM (phosphate); per base.
For assay [2] the test system is unchanged. As to the kind of experiment: CD titration, Scatchard. The conditions noted are these: Na+ (sodium cacodylate, I = 0.05 M); sodium cacodylate pH 7.0, 25 °C; Scatchard n fixed 0.2 per phosphate; per base.

For the compound `c1cc2ccc3ccc(CNCCCNCCN(CCNCCCNCc4ccc5ccc6cccc7ccc4c5c67)CCNCCCNCc4ccc5ccc6cccc7ccc4c5c67)c4ccc(c1)c2c34`, the “∆Tm” value in assay [1] was determined as 3.7 ± 0.5 °C. The logKs in assay [2] was 6.5 log(M^-1).
